Experiments:
Type in all cases: functional, cell-based
[1] = tested on: A549; assay: Antiproliferative activity against human A549 cells after 48 hrs by MTT assay; conditions: A549, 48 h
[2] = tested on: MGC-803; assay: Antiproliferative activity against human MGC803 cells after 48 hrs by MTT assay; conditions: MGC-803, 48 h
[3] = tested on: HepG2; assay: Antiproliferative activity against human HepG2 cells after 48 hrs by MTT assay; conditions: HepG2, 48 h
[4] = tested on: HeLa; assay: Antiproliferative activity against human HeLa cells after 48 hrs by MTT assay
[5] = tested on: MCF7; assay: Antiproliferative activity against human MCF7 cells after 48 hrs by MTT assay; conditions: MCF7, 48 h

Compound | IC50 [1] [µM] | IC50 [2] [µM] | IC50 [3] [µM] | IC50 [4] [µM] | IC50 [5] [µM]
O=C(NCCc1c[nH]c2ccc(Br)cc12)c1ccc(Cl)cc1O | 63 | 43 | 92 | 71 | 98
COc1ccc2[nH]cc(CCNC(=O)c3ccc(Cl)cc3O)c2c1 | > 100 | 56 | > 100 | 71 | > 100
O=C(NCCc1c[nH]c2ccc(F)cc12)c1ccccc1O | > 100 | 63 | > 100 | > 100 | > 100
Cc1ccc2[nH]cc(CCNC(=O)c3ccccc3O)c2c1 | > 100 | 45 | > 100 | > 100 | 93
O=C(NCCc1c[nH]c2ccc(Cl)cc12)c1cc(Cl)ccc1O | 62 | 31 | 89 | 80 | 80
Cc1ccc(C(=O)NCCc2c[nH]c3ccc(F)cc23)c(O)c1 | > 100 | 60 | > 100 | > 100 | > 100
O=C(NCCc1c[nH]c2ccc(Br)cc12)c1cc(Cl)ccc1O | 63 | 63 | 87 | 80 | 73
Cc1ccc2[nH]cc(CCNC(=O)c3ccc(Cl)cc3O)c2c1 | 68 | 47 | 98 | 93 | > 100
O=C(NCCc1c[nH]c2ccccc12)c1cc(Br)ccc1O | > 100 | 78 | > 100 | > 100 | > 100
O=C(NCCc1c[nH]c2ccc(Br)cc12)c1cc(Br)ccc1O | 62 | 80 | > 100 | > 100 | > 100
Cc1cccc(C(=O)NCCc2c[nH]c3ccc(Cl)cc23)c1O | 48 | 56 | 62 | 56 | 70
Cc1cccc(C(=O)NCCc2c[nH]c3ccccc23)c1O | > 100 | 63 | > 100 | 82 | > 100
O=C(NCCc1c[nH]c2ccccc12)c1ccccc1O | > 100 | > 100 | > 100 | > 100 | > 100
COc1ccc2[nH]cc(CCNC(=O)c3cc(Br)ccc3O)c2c1 | > 100 | 62 | > 100 | 74 | > 100
Cc1ccc2[nH]cc(CCNC(=O)c3cc(Br)ccc3O)c2c1 | 80 | 61 | 93 | > 100 | 89
COc1ccc2[nH]cc(CCNC(=O)c3ccccc3O)c2c1 | > 100 | 59 | > 100 | 82 | > 100
Cc1ccc(C(=O)NCCc2c[nH]c3ccc(Cl)cc23)c(O)c1 | 63 | 37 | > 100 | 64 | 73
COc1ccc2[nH]cc(CCNC(=O)c3ccc(C)cc3O)c2c1 | > 100 | 59 | 80 | 80 | > 100

Compound | IC50 [1] [µM] | IC50 [2] [µM] | IC50 [3] [µM] | IC50 [4] [µM] | IC50 [5] [µM]
Cc1ccc2[nH]cc(CCNC(=O)c3cccc(C)c3O)c2c1 | 50 | 38 | 64 | 61 | 62
O=C(NCCc1c[nH]c2ccc(F)cc12)c1cc(Cl)ccc1O | 53 | 53 | > 100 | > 100 | > 100
Cc1cccc(C(=O)NCCc2c[nH]c3ccc(F)cc23)c1O | 67 | 52 | > 100 | > 100 | > 100
O=C(NCCc1c[nH]c2ccc(Cl)cc12)c1ccccc1O | 60 | 35 | > 100 | 81 | 75
O=C(NCCc1c[nH]c2ccc(Cl)cc12)c1ccc(Cl)cc1O | 46 | 34 | 90 | 64 | 69
O=C(NCCc1c[nH]c2ccccc12)c1ccc(Cl)cc1O | > 100 | 80 | > 100 | > 100 | > 100
Cc1ccc(C(=O)NCCc2c[nH]c3ccccc23)c(O)c1 | > 100 | 80 | > 100 | > 100 | > 100
Cc1ccc(C(=O)NCCc2c[nH]c3ccc(C)cc23)c(O)c1 | 75 | 38 | > 100 | > 100 | 60
COc1ccc2[nH]cc(CCNC(=O)c3cccc(C)c3O)c2c1 | > 100 | 43 | 85 | 42 | 97
O=c1[nH]cc(F)c(=O)[nH]1 [FLUOROURACIL] | > 100 | 58 | 68 | 50 | –
O=C(NCCc1c[nH]c2ccc(Br)cc12)c1ccccc1O | 59 | 37 | > 100 | 79 | 80
Cc1ccc2[nH]cc(CCNC(=O)c3cc(Cl)ccc3O)c2c1 | 89 | 42 | > 100 | > 100 | 79
COc1ccc2[nH]cc(CCNC(=O)c3cc(Cl)ccc3O)c2c1 | > 100 | 55 | 75 | > 100 | > 100
Cc1ccc(C(=O)NCCc2c[nH]c3ccc(Br)cc23)c(O)c1 | 61 | 48 | 80 | 61 | 80
O=C(NCCc1c[nH]c2ccc(F)cc12)c1ccc(Cl)cc1O | > 100 | 62 | > 100 | > 100 | > 100
O=C(NCCc1c[nH]c2ccccc12)c1cc(Cl)ccc1O | > 100 | 74 | > 100 | > 100 | > 100
O=C(NCCc1c[nH]c2ccc(Cl)cc12)c1cc(Br)ccc1O | 63 | 35 | > 100 | 85 | 75
O=C(NCCc1c[nH]c2ccc(F)cc12)c1cc(Br)ccc1O | 77 | 80 | > 100 | 76 | > 100

— ChEMBL document CHEMBL4368888, “Design, synthesis and biological evaluation of tryptamine salicylic acid derivatives as potential antitumor agents” (Medchemcomm, 2019)
